Active and inactive are the calls of the source. The rule behind the calls is not given here.
Tested on: CCRIS mutagenicity, Ames/micronucleus/aberration tests
Test: CCRIS mutagenicity studies
[1] = Test System: AMES SALMONELLA TYPHIMURIUM, Strain/Indicator: TA98, Metabolic Activation: NONE, Method: PREINCUBATION
[2] = Test System: AMES SALMONELLA TYPHIMURIUM, Strain/Indicator: TA100, Metabolic Activation: NONE, Method: PREINCUBATION
[3] = Test System: AMES SALMONELLA TYPHIMURIUM, Strain/Indicator: TA100(NR), Metabolic Activation: NONE, Method: PREINCUBATION

CN(Cc1cnc2nc(N)nc(N)c2n1)c1ccc(C(=O)N[C@@H](CCC(=O)O)C(=O)O)cc1 was tested, and the mutagenic call (End Point: IN VITRO MICRONUCLEUS, Test System: V79 CELLS, Metabolic Activation: NONE) was “inactive; negative”, the mutagenic call (End Point: IN VIVO CHROMOSOMAL ABERRATIONS, Test System: BONE MARROW, Species: MOUSE, Strain/Sex: SWISS/MALE, FEMALE, Route: INTRAPERITONEAL) was “active; positive (structural changes)” and the mutagenic call (End Point: IN VIVO MICRONUCLEUS, Test System: BONE MARROW, Species: MOUSE, Strain/Sex: SWISS/MALE, FEMALE, Route: INTRAPERITONEAL) was “active; positive”. The mutagenic call (End Point: In vitro micronucleus, Test System: Human lymphoblastoid TK6 cells, Metabolic Activation: None) was “active; positive (p<0.001)”, the mutagenic call [1] was “inactive; negative” and the mutagenic call (Test System: AMES SALMONELLA TYPHIMURIUM, Strain/Indicator: TA98, Metabolic Activation: NONE, Method: STANDARD PLATE) was “inactive; negative”. The mutagenic call (Test System: AMES SALMONELLA TYPHIMURIUM, Strain/Indicator: TA98, Metabolic Activation: S-9, Method: PREINCUBATION) was “inactive; negative”, the mutagenic call (Test System: AMES SALMONELLA TYPHIMURIUM, Strain/Indicator: TA98, Metabolic Activation: S-9, Method: STANDARD PLATE) was “inactive; negative” and the mutagenic call [2] was “inactive; negative”. For the same compound, the mutagenic call (Test System: AMES SALMONELLA TYPHIMURIUM, Strain/Indicator: TA100, Metabolic Activation: NONE, Method: STANDARD PLATE) was “inactive; negative”, the mutagenic call (Test System: AMES SALMONELLA TYPHIMURIUM, Strain/Indicator: TA100, Metabolic Activation: S-9, Method: PREINCUBATION) was “inactive; negative” and the mutagenic call (Test System: AMES SALMONELLA TYPHIMURIUM, Strain/Indicator: TA100, Metabolic Activation: S-9, Method: STANDARD PLATE) was “inactive; negative”. For the same compound, the mutagenic call (Test System: AMES SALMONELLA TYPHIMURIUM, Strain/Indicator: TA102, Metabolic Activation: NONE, Method: STANDARD PLATE) was “inactive; negative”, the mutagenic call (Test System: AMES SALMONELLA TYPHIMURIUM, Strain/Indicator: TA1537, Metabolic Activation: NONE, Method: STANDARD PLATE) was “inactive; negative” and the mutagenic call (Test System: CHINESE HAMSTER V-79, Strain/Indicator: V-79 (HGPRT)/6-THIOGUANINE, Metabolic Activation: NONE) was “inactive; negative”. The mutagenic call (Test System: CHINESE HAMSTER V-79, Strain/Indicator: V-79/6-THIOGUANINE, Metabolic Activation: NONE, Method: SUSPENSION/PLATE) was “inactive; negative”, the mutagenic call (Test System: CHINESE HAMSTER V-79, Strain/Indicator: V-79/6-THIOGUANINE, Metabolic Activation: RAT, LIVER, HEPATOCYTES, Method: SUSPENSION/PLATE) was “inactive; negative” and the mutagenic call (Test System: E. COLI, Strain/Indicator: WP2 (HCR), Metabolic Activation: NONE, Method: STANDARD PLATE) was “inactive; negative”. The mutagenic call (Test System: E. COLI, Strain/Indicator: WP2 (HCR), Metabolic Activation: S-9, Method: STANDARD PLATE) was “inactive; negative”, the mutagenic call (Test System: E. COLI, Strain/Indicator: WP2, Metabolic Activation: NONE, Method: STANDARD PLATE) was “active; positive” and the mutagenic call (Test System: MOUSE LYMPHOMA, Strain/Indicator: L5178Y (TK+/TK-), Metabolic Activation: NONE, Method: MICROWELL) was “active; positive”. The mutagenic call (Test System: MOUSE LYMPHOMA, Strain/Indicator: L5178Y (TK+/TK-), Metabolic Activation: NONE, Method: SUSPENSION/PLATE) was “active; positive”, the mutagenic call (Test System: MOUSE LYMPHOMA, Strain/Indicator: L5178Y (TK+/TK-), Metabolic Activation: RAT, LIVER, S-9, AROCLOR 1254, Method: SUSPENSION/PLATE) was “active; positive” and the mutagenic call (Test System: MOUSE LYMPHOMA, Strain/Indicator: L5178Y (TK+/TK-), Metabolic Activation: S-9, Method: MICROWELL) was “active; positive”.

For CCCCNNCCCC, the mutagenic call (Test System: AMES SALMONELLA TYPHIMURIUM, Strain/Indicator: TA100, Metabolic Activation: NONE, Method: PREINCUBATION (11 HR GROWTH PERIOD FOR BACTERIA)) was “active; positive”, the mutagenic call (Test System: AMES SALMONELLA TYPHIMURIUM, Strain/Indicator: TA100, Metabolic Activation: RAT, LIVER, S-9, PCB, Method: PREINCUBATION (11 HR GROWTH PERIOD FOR BACTERIA)) was “inactive; negative” and the mutagenic call (Test System: AMES SALMONELLA TYPHIMURIUM, Strain/Indicator: TA102, Metabolic Activation: NONE, Method: PREINCUBATION (5 OR 7 HR GROWTH PERIOD FOR BACTERIA)) was “active; positive”. The mutagenic call (Test System: AMES SALMONELLA TYPHIMURIUM, Strain/Indicator: TA102, Metabolic Activation: RAT, LIVER, S-9, PCB, Method: PREINCUBATION (5 OR 7 HR GROWTH PERIOD FOR BACTERIA)) was “active; positive”.

For Oc1ccc(N=Nc2ccccn2)c(O)c1, the mutagenic call (End Point: Mouse lymphoma, Test System: L5178Y (TK+/TK-)/trifluorothymidine, Metabolic Activation: None, Method: Suspension/plate) was “inactive; negative”, the mutagenic call (End Point: Mouse lymphoma, Test System: L5178Y (TK+/TK-)/trifluorothymidine, Metabolic Activation: Rat, Liver, S-9, Method: Suspension/plate) was “inactive; negative” and the mutagenic call (Test System: Ames Salmonella typhimurium, Strain/Indicator: TA98, Metabolic Activation: None) was “inactive; negative”. The mutagenic call (Test System: Ames Salmonella typhimurium, Strain/Indicator: TA98, Metabolic Activation: Rat, Liver, S-9) was “inactive; negative”, the mutagenic call (Test System: Ames Salmonella typhimurium, Strain/Indicator: TA100, Metabolic Activation: None) was “inactive; negative” and the mutagenic call (Test System: Ames Salmonella typhimurium, Strain/Indicator: TA100, Metabolic Activation: Rat, Liver, S-9) was “inactive; negative”. The mutagenic call (Test System: Ames Salmonella typhimurium, Strain/Indicator: TA1535, Metabolic Activation: None) was “inactive; negative”, the mutagenic call (Test System: Ames Salmonella typhimurium, Strain/Indicator: TA1535, Metabolic Activation: Rat, Liver, S-9) was “inactive; negative” and the mutagenic call (Test System: Ames Salmonella typhimurium, Strain/Indicator: TA1537, Metabolic Activation: None) was “inactive; negative”. For the same compound, the mutagenic call (Test System: Ames Salmonella typhimurium, Strain/Indicator: TA1537, Metabolic Activation: Rat, Liver, S-9) was “inactive; negative”.

In the case of CC(=O)Nc1ccc(Oc2ccc(N=O)cc2)cc1, the mutagenic call (Test System: AMES SALMONELLA TYPHIMURIUM, Strain/Indicator: TA98(1,8-DNP6), Metabolic Activation: NONE, Method: PREINCUBATION) is reported as “active; positive”, the mutagenic call (Test System: AMES SALMONELLA TYPHIMURIUM, Strain/Indicator: TA98(1,8-DNP6), Metabolic Activation: RAT, LIVER, S-9, AROCLOR 1254, Method: PREINCUBATION) is reported as “active; positive” and the mutagenic call (Test System: AMES SALMONELLA TYPHIMURIUM, Strain/Indicator: TA98(NR), Metabolic Activation: NONE, Method: PREINCUBATION) is reported as “active; positive”. The mutagenic call (Test System: AMES SALMONELLA TYPHIMURIUM, Strain/Indicator: TA98(NR), Metabolic Activation: RAT, LIVER, S-9, AROCLOR 1254, Method: PREINCUBATION) was “active; positive”, the mutagenic call [1] was “active; positive” and the mutagenic call (Test System: AMES SALMONELLA TYPHIMURIUM, Strain/Indicator: TA98, Metabolic Activation: RAT, LIVER, S-9, AROCLOR 1254, Method: PREINCUBATION) was “active; positive”. For the same compound, the mutagenic call [3] was “active; positive” and the mutagenic call [2] was “active; positive”.

With N[C@@H](CSc1ccc([N+](=O)[O-])cc1[N+](=O)[O-])C(=O)O the mutagenic call [3] was “active; positive”, the mutagenic call (Test System: AMES SALMONELLA TYPHIMURIUM, Strain/Indicator: TA100/GSH-, Metabolic Activation: NONE, Method: PREINCUBATION) was “active; positive” and the mutagenic call [2] was “active; positive”.
